Measurements as given in ChEMBL document CHEMBL5674870, “Uropathogenic E. coli (UPEC) Infection Induces Proliferation through Enhancer of Zeste Homologue 2 (EZH2)” (PLoS One, 2016).
Activity calls are given as the source filed them. The calls are words filed in the database; no cut-off is given here.

Tests used:
[1] = biological target: Histone-lysine N-methyltransferase EZH2 (Homo sapiens) (UniProt Q15910); test: Inhibition of EZH2 in human HT-5637 cells assessed as decrease in uropathogenic Escherichia coli infection-induced host cell proliferation at 500 nM measured 24 to 72 hrs after infection by immunofluorescence analysis; type: cell-based; conditions: time 24-72 hrs
[2] = biological target: Histone-lysine N-methyltransferase EZH2 (Homo sapiens) (UniProt Q15910); test: Inhibition of EZH2 in human HT-5637 cells assessed as decrease in uropathogenic Escherichia coli infection-induced WNT3A mRNA level by qRT-PCR analysis; type: cell-based
[3] = Inhibition of KDM6A/6B in human HT-5637 cells assessed as increase in uropathogenic Escherichia coli infection-induced host cell proliferation at 100 nM measured 24 to 72 hrs after infection by immunofluorescence analysis; type: toxicity, cell-based; conditions: human, 5637, 0.1 µM, time 24-72 hrs
[4] = Inhibition of KDM6A/6B in human HT-5637 cells assessed as increase in uropathogenic Escherichia coli infection-induced WNT3A mRNA level by qRT-PCR analysis; type: toxicity, cell-based

Histone-lysine N-methyltransferase EZH2 (Homo sapiens), sequence (Q15910 whole entry, looked up): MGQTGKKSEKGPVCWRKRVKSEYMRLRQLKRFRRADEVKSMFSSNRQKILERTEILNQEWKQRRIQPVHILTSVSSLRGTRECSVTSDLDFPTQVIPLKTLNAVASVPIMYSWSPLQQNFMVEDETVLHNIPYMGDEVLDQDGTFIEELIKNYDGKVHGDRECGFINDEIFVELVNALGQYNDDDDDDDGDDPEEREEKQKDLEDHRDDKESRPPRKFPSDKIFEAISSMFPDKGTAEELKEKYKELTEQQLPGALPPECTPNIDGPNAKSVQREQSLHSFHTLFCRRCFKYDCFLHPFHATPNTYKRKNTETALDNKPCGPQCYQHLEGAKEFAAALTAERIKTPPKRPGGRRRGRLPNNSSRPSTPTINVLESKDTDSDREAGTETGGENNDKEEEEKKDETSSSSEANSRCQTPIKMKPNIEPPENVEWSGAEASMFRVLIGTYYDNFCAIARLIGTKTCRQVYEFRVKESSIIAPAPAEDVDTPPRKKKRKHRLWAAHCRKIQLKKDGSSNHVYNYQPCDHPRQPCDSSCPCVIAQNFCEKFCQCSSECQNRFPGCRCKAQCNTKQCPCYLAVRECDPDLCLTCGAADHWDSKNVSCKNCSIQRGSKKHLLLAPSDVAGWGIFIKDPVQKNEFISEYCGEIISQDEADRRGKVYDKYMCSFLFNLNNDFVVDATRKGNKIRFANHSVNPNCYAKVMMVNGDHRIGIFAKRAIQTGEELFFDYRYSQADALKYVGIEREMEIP

CCCc1cc(C)[nH]c(=O)c1CNC(=O)c1cc(-c2ccc(N3CCN(C(C)C)CC3)nc2)cc2c1cnn2C(C)C
inhibition [1]: Active | inhibition [2]: Active

CCOC(=O)CCNc1cc(N2CCc3ccccc3CC2)nc(-c2ccccn2)n1
inhibition (INH) [3]: Active | inhibition (INH) [4]: Active
